{"source": "patent US20140196172A1", "about": "“Organelle Targeting Nanocarriers” (Her Majesty the Queen in Right of Canada, as Repre sented …, priority 2011, published 2014)"}
{"test_system": "mitochondria of triticale microspores", "experiment": "qRT-PCR of gfp mRNA, microspores transfected with pWMaadA16GFP", "format": "cell-based", "details": "gfp reporter construct", "excerpt": "FIG. 17 is a plot showing the level of expression (fold increase, average of 4 replicates) of GFP in triticale microspores transfected with the pWMaadA16GFP plasmid in the presence of mTP1 (SEQ ID NO: 1), mTP2 (SEQ ID NO: 2), mTP3 (SEQ ID NO: 3), mTP4 (SEQ ID NO: 4) or mTP5 (SEQ ID NO: 5) compared to the level of expression (fold increase) of the internal control elongation factor 1a (EF1a), as measured by quantitative real time PCR of mRNA levels;\nWheat mitochondrial aadA16GFP reporter plasmid (pWMaadA16GFP, FIG. 11) is a 4587 base pair wheat specific mitochondrial transformation vector, which targets insertions into the fourth repeat region between the trnfM and rm18 gene cluster which is repeated three times in the Triticum aestivum mitochondrial genome. The insertion site is in the Triticum aestivum mitochondrial genome at nucleotides 300805-300878 and 300880-302834 (GenBank accession No. AP008982.1). A multiple cloning site is introduced following the tmfM target insertion sequence. The selection marker gene is an organelle codon specific aad-gfp fusion gene, which facilitates a dual selection method of spectinomycin resistance through an aadA derivative and visual detection by GFP fluorescence (GenBank accession No. ABX39486; Khan and Maliga, Nat. Biotechnol. (1999 September) 17(9): 910-5). The selection marker gene is driven by the Triticum aestivum mitochondrial atpA gene promoter (GenBank accession No. X54387.1). The aad-gfp fusion gene is terminated with the TpsbA terminator sequence derived from the Triticum aestivum mitochondrial genome at nucleotides 62871-62565 (GenBank accession No. AP008982.1).\n(§1) The dsDNA construct (pWMaadA16GFP for mitochondrial expression or pWCaadA16GFP for expression in chloroplasts) is combined with the mTP (for mitochondrial expression) or cTP (for expression in chloroplasts) in the amounts used in the protoplast transformation experiments described above in a final volume of 100 μl of NBP-99 solution. The mixture is incubated for 10 minutes at room temperature, then incubated with isolated triticale microspores (500 μl, 10^6 microspores/ml, prepared as described in Example 2) for 1 h in the dark at room temperature. NBP-99 solution (500 μl) is added and the mixture is incubated in the dark for 24 h. The cells are imaged using confocal microscopy, as described in Example 2, using MitoTracker® Orange staining to visualize mitochondria.\n(§2) Microspores are disrupted using a cleaned ceramic bead and aggressive shaking as the tissue is thawing. RLT buffer/B-Me (450 μl) is added and the sample is vortexed. The sample is heated at 55° C. for 1 minute and vortexed again. RNA is extracted using an RNeasy™ Plant Mini Kit (Qiagen), incorporating on-column DNase I digestion into the protocol. The final elution volume is 40 μl. RNA is assessed using both agarose gel […] (to ensure RNA is intact) and spectrophotometry (for quantification).\ncDNA is generated using a First Strand Synthesis kit (Invitrogen). RNA (1 μg) is added to each sample and the manufacturer's protocol for synthesis followed, with the exception that the volume of the reaction mixture is increased from 20 μl to 30 μl. A negRT sample containing all reagents but no RNA is included in the cDNA synthesis as a negative control. […]\n(§3) Real time PCR reactions are performed using QuantiTect™ SYBR™ Green PCR Master Mix (Qiagen) in a 20 μl reaction volume. […]"}
{"sequence": "MFSYLPRYPLRAASARALVRATRPSYRSALLRYQ (listed as Triticum aestivum) [mTP1]", "GFP expression by mitochondria confirmed by qRT-PCR": "GFP is expressed"}
{"sequence": "MAAWMRSLFSPLKKLWIRMH (Zea mays) [mTP2]", "GFP expression by mitochondria confirmed by qRT-PCR": "GFP is expressed"}
{"sequence": "MKLLWRLILSRKW (listed as Arabidopsis thaliana) [mTP3]", "GFP expression by mitochondria confirmed by qRT-PCR": "GFP is expressed"}
{"sequence": "MWWRRSRTNSLRYT (listed as Arabidopsis thaliana) [mTP4]", "GFP expression by mitochondria confirmed by qRT-PCR": "GFP is expressed"}
{"sequence": "MLFRLRRSVRLRGLLA (listed as Arabidopsis thaliana) [mTP5]", "GFP expression by mitochondria confirmed by qRT-PCR": "GFP is expressed"}
{"test_system": "proplastids of triticale microspores", "experiment": "qRT-PCR of gfp mRNA, microspores transfected with pWCaadA16GFP", "format": "cell-based", "details": "gfp reporter construct", "excerpt": "FIG. 18 is a plot showing the level of expression (fold increase, average of 4 replicates) of GFP in triticale microspores transfected with the pWCaadA16GFP plasmid in the presence of cTP1 (SEQ ID NO: 6), cTP2 (SEQ ID NO: 7), cTP3 (SEQ ID NO: 8), cTP4 (SEQ ID NO: 9) or cTP5 (SEQ ID NO: 10) compared to the level of expression (fold increase) of the internal control elongation factor 1a (EF1a), as measured by quantitative real time PCR of mRNA levels;\nWheat chloroplast aadA16GFP reporter plasmid (pWCaadA16GFP, FIG. 12) is a 4212 base pair wheat specific plastid transformation vector, which targets insertions into the tml-tmA inverted repeat regions of the Triticum aestivum plastid genome at nucleotides 92850-93727 and 93794-94671 (GenBank accession No. AB042240.3). A multiple cloning site is introduced following the tml target insertion sequence. The selection marker gene is an organelle codon specific aad-gfp fusion gene, which facilitates a dual selection method of spectinomycin resistance through an aadA derivative and visual detection by GFP fluorescence (GenBank accession No. ABX39486; Khan and Maliga, Nat. Biotechnol. (1999 September) 17(9): 910-5). The selection marker gene is driven by the Triticum aestivum plastid genome promoter (psbA) at nucleotides 1282-1153 (GenBank accession No. AB042240.3). The aad-gfp fusion gene is terminated with the rice psbA terminator sequence derived from chloroplast transformation vector pVSR326 nucleotides 4014-4387 (GenBank accession No. AF527485.1).\nas §1, §2\ncDNA is generated using a First Strand Synthesis kit (Invitrogen). RNA (1 μg) is added to each sample and the manufacturer's protocol for synthesis followed, with the exception that the volume of the reaction mixture is increased from 20 μl to 30 μl. A negRT sample containing all reagents but no RNA is included in the cDNA synthesis as a negative control.\nStandard curves are generated for both elongation factor 1a (EF1a) (internal control) and green fluorescent protein (GFP) (test) genes. […]\nas §3"}
{"sequence": "MQTLTASSSVSSIQRHRPHPAGRRSSSVTFS (listed as Triticum aestivum) [cTP2]", "GFP expression by proplastids confirmed by qRT-PCR": "GFP is expressed"}
{"sequence": "MAALIPAIASLPRAQVEKPHPMPVSTRPGLVS (listed as Triticum aestivum) [cTP4]", "GFP expression by proplastids confirmed by qRT-PCR": "GFP is expressed"}
{"sequence": "MSSPPPLFTSCLPASSPSIRRDSTSGSVTSPLR (listed as Arabidopsis thaliana) [cTP5]", "GFP expression by proplastids confirmed by qRT-PCR": "GFP is expressed"}
{"sequence": "MGGCVSTPKSCVGAKLR (listed as Arabidopsis thaliana) [cTP1]", "GFP expression by proplastids confirmed by qRT-PCR": "GFP is expressed"}
